In patent US20200246323A1, “Antibody Drug Conjugates with Cell Permeable BCL-XL Inhibitors” (AbbVie Inc., priority 2014, published 2020):
Where two headings read alike, the source gives them in different places. Marks after values point to notes of the source that are not given here.

Columns and labels:
NCI-H146 xenografts = assay: Inhibition of H146 xenograft tumor growth; format: in vivo, mouse; conditions: Table 14; 50 mg/kg/day PO QDx21
NCI-H1963.FP5 xenografts = assay: Inhibition of H1963.FP5 xenograft tumor growth; format: in vivo, mouse; conditions: Table 15; 50 mg/kg/day PO QDx21
circulating platelets [1] = conditions: SCID/bg, mouse, in vivo, po, 100 mg/kg
NCI-H1650 xenografts = assay: Inhibition of H1650 xenograft tumor growth; format: in vivo, mouse; conditions: Table 9
EBC-1 xenografts = assay: Inhibition of EBC-1 xenograft tumor growth; format: in vivo, mouse; conditions: Table 13, 7.5 mg/kg/day IV QDx1
circulating platelets [2] = assay: Number of circulating platelets in mice after a single dose; conditions: for Lowest thrombocyte count / Time to lowest count: SCID/bg mice
[3] = system: Molt-4 human acute lymphoblastic leukemia cells; assay: Molt-4 cell viability assay (CellTiter-Glo, 48 hours); format: cell-based; conditions: 10% human serum, read-out: Molt-4 Viability EC50 (nM, 10% HS)
Description: The ability of exemplary Bcl-xL inhibitors can be determined in cell-based killing assays using a variety of cell lines and mouse tumor models. For example, their activity on cell viability can be assessed on a panel of cultured tumorigenic and non-tumorigenic cell lines, as well as primary mouse or human cell populations. Bcl-xL inhibitory activity of exemplary Bcl-xL inhibitors was confirmed in a cell viability assay with Molt-4 cells.
In one exemplary set of conditions, Molt-4 (ATCC, Manassas, Va.) human acute lymphoblastic leukemia cells were plated 12,500 cells per well in 384-well tissue culture plates (Corning, Corning, N.Y.) in a total volume of 25 μL tissue culture medium supplemented with 10% human serum (Sigma-Aldrich, St. Louis, Mo.) and treated with a 3-fold serial dilution of the compounds of interest from 10 μM to 0.0005 μM. Each concentration was tested in duplicate at least 3 separate times. The number of viable cells following 48 hours of compound treatment was determined using the CellTiter-Glo Luminescent Cell Viability Assay according to the manufacturer's recommendations (Promega Corp., Madison, Wis.). Compounds were tested in the presence of 10% HS.

GST-Bcl-xL = GST-Bcl-xL (Homo sapiens, UniProt Q07817); assay: TR-FRET Bcl-xL binding assay (competition with probe F-Bak)
Procedure: Tb-anti-GST antibody was purchased from Invitrogen (Catalog No. PV4216).
For the assay, test compounds were serially diluted in DMSO starting at 50 μM (2× starting concentration; 10% DMSO) and 10 μL transferred into a 384-well plate. 10 μL of a protein/probe/antibody mix was then added to each well at final concentrations listed below:
The samples were then mixed on a shaker for 1 minute and incubated for an additional 2 hours at room temperature. For each assay plate, a probe/antibody and protein/antibody/probe mixture were included as a negative and a positive control, respectively. Fluorescence was measured on the Envision (Perkin Elmer) using a 340/35 nm excitation filter and 520/525 (F-Bak) and 495/510 nm (Tb-labeled anti-his antibody) emission filters. Dissociation constants (Ki) were determined using Wang's equation (Wang, 1995, FEBS Lett. 360:111-114). The TR-FRET assay can be performed in the presence of varying concentrations of human serum (HS) or fetal bovine serum (FBS). Compounds were tested both without HS and in the presence of 1% HS.

[4] = single dose 0.61 mg/kg, intravenous
[5] = in the presence of 1% human serum, read-out: Bcl-xL Binding Ki (nM, 1% HS)
[6] = without HS, read-out: Bcl-xL Binding Ki
[7] = 25 mg/kg/day PO QDx14, 25 mg/kg/day

Sequence of GST-Bcl-xL (Q07817 whole entry): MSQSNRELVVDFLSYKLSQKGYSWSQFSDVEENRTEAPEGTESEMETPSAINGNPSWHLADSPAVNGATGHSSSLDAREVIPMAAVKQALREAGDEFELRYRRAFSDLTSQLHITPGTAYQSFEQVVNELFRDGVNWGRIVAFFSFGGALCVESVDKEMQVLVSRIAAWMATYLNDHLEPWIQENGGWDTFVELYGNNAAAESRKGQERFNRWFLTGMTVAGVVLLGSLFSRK

SMILES: CC1(C)CCC(CN2CCN(c3ccc(C(=O)NS(=O)(=O)c4ccc(NCC5CCOCC5)c([N+](=O)[O-])c4)c(Oc4cnc5[nH]ccc5c4)c3)CC2)=C(c2ccc(Cl)cc2)C1 [ABT-199]
- Growth Inhibition TGD (%) (NCI-H146 xenografts): 48* %
- Growth Inhibition TGImax (%) (NCI-H146 xenografts): 75* %
- Response Frequency CR (%) (NCI-H146 xenografts): 0%
- Response Frequency OR (%) (NCI-H146 xenografts): 0%
- Response Frequency PR (%) (NCI-H146 xenografts): 0%
- Growth Inhibition TGD (%) (NCI-H1963.FP5 xenografts): 22* %
- Growth Inhibition TGImax (%) (NCI-H1963.FP5 xenografts): 50* %
- Response Frequency CR (%) (NCI-H1963.FP5 xenografts): 0%
- Response Frequency OR (%) (NCI-H1963.FP5 xenografts): 0%
- Response Frequency PR (%) (NCI-H1963.FP5 xenografts): 0%

SMILES: CC1(C)CCC(c2ccc(Cl)cc2)=C(CN2CCN(c3ccc(C(=O)NS(=O)(=O)c4ccc(N[C@H](CCN5CCOCC5)CSc5ccccc5)c(S(=O)(=O)C(F)(F)F)c4)cc3)CC2)C1 [ABT-263, Navitoclax]
- Time to lowest count (circulating platelets [1]): 6 h
- Lowest thrombocyte count (circulating platelets [1]; 6 h): 10 1/10^3 of the platelet#/mm^3

SMILES: CC(=O)O[C@@]12CO[C@@H]1C[C@H](O)[C@@]1(C)C(=O)[C@H](O)C3=C(C)[C@@H](OC(=O)[C@H](O)[C@@H](NC(=O)OC(C)(C)C)c4ccccc4)C[C@@](O)([C@@H](OC(=O)c4ccccc4)[C@H]21)C3(C)C [DTX, docetaxel]
- Growth Inhibition TGD (%) (NCI-H1650 xenografts; 7.5 mg/kg/day IV QDx1): 94* %
- Growth Inhibition TGImax (%) (NCI-H1650 xenografts; 7.5 mg/kg/day IV QDx1): 73* %
- Response Frequency CR (%) (NCI-H1650 xenografts; 7.5 mg/kg/day IV QDx1): 0%
- Response Frequency OR (%) (NCI-H1650 xenografts; 7.5 mg/kg/day IV QDx1): 0%
- Response Frequency PR (%) (NCI-H1650 xenografts; 7.5 mg/kg/day IV QDx1): 0%
- Response Frequency CR (%) (EBC-1 xenografts): 0%
- Response Frequency OR (%) (EBC-1 xenografts): 0%
- Response Frequency PR (%) (EBC-1 xenografts): 0%
- Growth Inhibition TGD (%) (EBC-1 xenografts; 7.5 mg/kg/day): 44%
- Growth Inhibition TGImax (%) (EBC-1 xenografts; 7.5 mg/kg/day): 76%

SMILES: CNCCOC12CC3(C)CC(C)(CC(Cn4ncc(-c5ccc(N6CCc7cccc(C(=O)Nc8nc9ccccc9s8)c7C6)nc5C(=O)O)c4C)(C3)C1)C2 [Example 1.1]
- Decrease of the platelet number from normal count (circulating platelets [2]; dose of 0.61 mg/kg): 100 fold
- Lowest thrombocyte count (circulating platelets [2]; [4]): 6 1/10^3 of the platelet#/mm^3
- Time to lowest count (circulating platelets [2]; [4]): 6 h
- EC50 [3]: 7.8 nM
- Ki (GST-Bcl-xL; [5]): 0.39 nM
- Ki (GST-Bcl-xL; [6]): 0.0029 nM

SMILES: CNCCOCCOCCOC12CC3(C)CC(C)(CC(Cn4ncc(-c5ccc(N6CCc7cccc(C(=O)Nc8nc9ccccc9s8)c7C6)nc5C(=O)O)c4C)(C3)C1)C2 [Example 1.2, 6-[8-(1,3-benzothiazol-2-ylcarbamoyl)-3,4-dihydroisoquinolin-2(1H)-yl]-3-(1-({[(1r,3R,5S,7s)-3,5-dimethyl-7-(2-(2-[2-(methylamino)ethoxy]ethoxy}ethoxy)tricyclo[3.3.1.1^3,7]dec-1-yl]methyl)-5-methyl-1H-pyrazol-4-yl)pyridine-2-carboxylic acid]
- EC50 [3]: 5.4 nM
- Ki (GST-Bcl-xL; [5]): 0.51 nM
- Ki (GST-Bcl-xL; [6]): 0.04 nM

SMILES: Cc1c(-c2ccc(N3CCc4cccc(C(=O)Nc5nc6ccccc6s5)c4C3)nc2C(=O)O)cnn1CC12CC3(C)CC(C)(C1)CC(OCCN)(C3)C2 [Example 1.3, 3-(1-{[3-(2-aminoethoxy)-5,7-dimethyltricyclo[3.3.1.1^3,7]dec-1-yl]methyl}-5-methyl-1H-pyrazol-4-yl)-6-[8-(1,3-benzothiazol-2-ylcarbamoyl)-3,4-dihydroisoquinolin-2(1H)yl]pyridine-2-carboxylic acid]
- EC50 [3]: 6.6 nM
- Ki (GST-Bcl-xL; [5]): 0.097 nM
- Ki (GST-Bcl-xL; [6]): < 0.001 nM

SMILES: Cc1c(-c2ccc(N3CCc4cccc(C(=O)Nc5nc6ccccc6s5)c4C3)nc2C(=O)O)cnn1CC12CC3(C)CC(C)(C1)CC(OCCOCCN)(C3)C2 [Example 1.4, 3-[1-({3-[2-(2-aminoethoxy)ethoxy]-5,7-dimethyltricyclo[3.3.1.1^3,7]dec-1-yl}methyl)-5-methyl-1H-pyrazol-4-yl]-6-[8-(1,3-benzothiazol-2-ylcarbamoyl)-3,4-dihydroisoquinolin-2(1H)yl]pyridine-2-carboxylic acid]
- EC50 [3]: 12.1 nM
- Ki (GST-Bcl-xL; [5]): 0.24 nM
- Ki (GST-Bcl-xL; [6]): 0.01 nM

SMILES: COCCNCCOC12CC3(C)CC(C)(CC(Cn4ncc(-c5ccc(N6CCc7cccc(C(=O)Nc8nc9ccccc9s8)c7C6)nc5C(=O)O)c4C)(C3)C1)C2 [Example 1.5, 6-[8-(1,3-benzothiazol-2-ylcarbamoyl)-3,4-dihydroisoquinolin-2(1H)-yl]-3-(1-[(3-{2-[(2-methoxyethyl)amino]ethoxy}-5,7-dimethyltricyclo[3.3.1.1^3,7]dec-1-yl)methyl]-5-methyl-1H-pyrazol-4-yl)pyridine-2-carboxylic acid]
- EC50 [3]: 1.85 nM
- Ki (GST-Bcl-xL; [5]): 0.078 nM
- Ki (GST-Bcl-xL; [6]): < 0.001 nM

SMILES: Cc1c(-c2ccc(N3CCc4c(F)ccc(C(=O)Nc5nc6ccccc6s5)c4C3)nc2C(=O)O)cnn1CC12CC3(C)CC(C)(C1)CC(OCCN)(C3)C2 [Example 1.6, 3-(1-{[3-(2-aminoethoxy)-5,7-dimethyltricyclo[3.3.1.1^3,7]dec-1-yl]methyl}-5-methyl-1H-pyrazol-4-yl)-6-[8-(1,3-benzothiazol-2-ylcarbamoyl)-5-fluoro-3,4-dihydroisoquinolin-2(1H)-yl]pyridine-2-carboxylic acid]
- EC50 [3]: 47 nM
- Ki (GST-Bcl-xL; [5]): 0.62 nM
- Ki (GST-Bcl-xL; [6]): 0.019 nM

SMILES: Cc1c(-c2ccc(N3CCc4cc(F)cc(C(=O)Nc5nc6ccccc6s5)c4C3)nc2C(=O)O)cnn1CC12CC3(C)CC(C)(C1)CC(OCCN)(C3)C2 [Example 1.7, 3-(1-{[3-(2-aminoethoxy)-5,7-dimethyltricyclo[3.3.1.1^3,7]dec-1-yl]methyl}-5-methyl-1H-pyrazol-4-yl)-6-[8-(1,3-benzothiazol-2-ylcarbamoyl)-6-fluoro-3,4-dihydroisoquinolin-2(1H)-yl]pyridine-2-carboxylic acid]
- EC50 [3]: 4 nM
- Ki (GST-Bcl-xL; [5]): 0.094 nM
- Ki (GST-Bcl-xL; [6]): 0.011 nM

SMILES: Cc1c(-c2ccc(N3CCc4ccc(F)c(C(=O)Nc5nc6ccccc6s5)c4C3)nc2C(=O)O)cnn1CC12CC3(C)CC(C)(C1)CC(OCCN)(C3)C2 [Example 1.8, 3-(1-{[3-(2-aminoethoxy)-5,7-dimethyltricyclo[3.3.1.1^3′ ]dec-1-yl]methyl}-5-methyl-1H-pyrazol-4-yl)-6-[8-(1,3-benzothiazol-2-ylcarbamoyl)-7-fluoro-3,4-dihydroisoquinolin-2(1H)-yl]pyridine-2-carboxylic acid]
- Ki (GST-Bcl-xL; [5]): 17 nM
- Ki (GST-Bcl-xL; [6]): 0.1 nM

SMILES: Cc1c(-c2ccc(N3CCc4cccc(C(=O)Nc5nc6ccccc6s5)c4C3)nc2C(=O)O)cnn1CC12CC3CC(CC(C3)C1)C2 [Example A-1331852]
- Lowest thrombocyte count (circulating platelets [2]; single dose 25 mg/kg, oral): 9 1/10^3 of the platelet#/mm^3
- Time to lowest count (circulating platelets [2]; single dose 25 mg/kg, oral): 6 h
- Response Frequency CR (%) (NCI-H1650 xenografts; 25 mg/kg/day PO QDx14): 0%
- Response Frequency OR (%) (NCI-H1650 xenografts; 25 mg/kg/day PO QDx14): 0%
- Response Frequency PR (%) (NCI-H1650 xenografts; 25 mg/kg/day PO QDx14): 0%
- Growth Inhibition TGD (%) (NCI-H1650 xenografts; [7]): 78%
- Growth Inhibition TGImax (%) (NCI-H1650 xenografts; [7]): 57%
